# Experimental data: ChEMBL document CHEMBL1201862, “PubChem BioAssay data set” (2004)
#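 In this assay, cells in 96-well plates receive the compound at five concentrations for 48 hours. Endpoints are linearly interpolated between the surrounding concentrations. GI50 is the concentration that inhibits growth by half.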 The source made the active and inactive calls. Rule as the data show it: active = GI50 up to about 1.1 µM and inactive = higher. Where a SMILES comes first, the peptide text is derived from it. The star is where a group is joined. X33 = O=C(c1ccc(-c2ccc(Cl)cc2Cl)o1)*
# Legend:
# Experiment in all cases: DTP human tumour cell line panel, 48 h
# [1] = system: SF-268
# [2] = system: HT-29
# [3] = system: NCI/ADR-RES
# [4] = system: NCI-H522
# [5] = system: UACC-257
# [6] = system: DU-145
# [7] = system: BT-549
# [8] = system: NCI-H226
# [9] = system: MCF7
# [10] = system: OVCAR-8
# [11] = system: NCI-H23
# [12] = system: M14
# [13] = system: SK-OV-3
# [14] = system: CAKI-1
# [15] = system: COLO 205
# [16] = system: A498
# [17] = system: MOLT-4
# [18] = system: OVCAR-5
# [19] = system: T47D
SMILES,GI50 [1],GI50 [2],GI50 [3],GI50 [4],GI50 [5],GI50 [6],GI50 [7],GI50 [8],GI50 [9],GI50 [10],GI50 [11],GI50 [12],GI50 [13],GI50 [14],GI50 [15],GI50 [16],GI50 [17],GI50 [18],GI50 [19]
COc1ccc(/C=C/C(=O)N[C@@H]2C(=O)N3[C@@H]2SC(C)(C)[C@@H]3C(=O)O)cc1,> 100 µM (inactive),> 100 µM (inactive),> 100 µM (inactive),69.2 µM (inactive),> 100 µM (inactive),> 100 µM (inactive),> 100 µM (inactive),> 100 µM (inactive),> 100 µM (inactive),> 100 µM (inactive),> 100 µM (inactive),> 100 µM (inactive),> 100 µM (inactive),> 100 µM (inactive),> 100 µM (inactive),> 100 µM (inactive),> 100 µM (inactive),> 100 µM (inactive),> 100 µM (inactive)
Oc1ccc(CNCc2ccccc2)c2cccnc12,0.24 µM (active),4.11 µM (inactive),0.959 µM (active),0.222 µM (active),0.262 µM (active),0.0452 µM (active),0.0703 µM (active),5 µM (inactive),0.11 µM (active),0.107 µM (active),0.156 µM (active),0.27 µM (active),0.542 µM (active),0.48 µM (active),2.65 µM (inactive),0.354 µM (active),0.215 µM (active),1.22 µM (inactive),0.0783 µM (active)
Cc1nc(N)nc(N)c1N1CCN(Cc2ccccc2)CC1,16.1 µM (inactive),11.8 µM (inactive),12.8 µM (inactive),24.8 µM (inactive),9.64 µM (inactive),37.2 µM (inactive),> 93.3 µM (inactive),12.1 µM (inactive),27.1 µM (inactive),14.9 µM (inactive),17.1 µM (inactive),13.3 µM (inactive),> 55.1 µM (inactive),37.1 µM (inactive),31.8 µM (inactive),42.5 µM (inactive),29.7 µM (inactive),> 37.8 µM (inactive),> 100 µM (inactive)
O=C(Nc1c(Cl)cccc1Cl)c1c(Cl)c(Cl)c(Cl)c(Cl)c1-c1nc2ccccc2[nH]1,63.7 µM (inactive),26 µM (inactive),51.1 µM (inactive),37 µM (inactive),> 100 µM (inactive),62.2 µM (inactive),56.9 µM (inactive),14.5 µM (inactive),34.6 µM (inactive),33 µM (inactive),76.7 µM (inactive),22.1 µM (inactive),0.0507 µM (active),62.7 µM (inactive),42.8 µM (inactive),11.4 µM (inactive),75.3 µM (inactive),> 100 µM (inactive),28 µM (inactive)
COC(=O)C1=C(C(=O)OC)SC(=C2SCSC3=C2SC(C(=O)OC)=C(C(=O)OC)C32SC3=C(CCCC3)S2)S1,> 100 µM (inactive),> 100 µM (inactive),> 100 µM (inactive),> 100 µM (inactive),> 100 µM (inactive),> 100 µM (inactive),> 100 µM (inactive),> 100 µM (inactive),> 100 µM (inactive),> 100 µM (inactive),> 100 µM (inactive),> 100 µM (inactive),> 100 µM (inactive),> 100 µM (inactive),> 100 µM (inactive),99.8 µM (inactive),> 100 µM (inactive),> 100 µM (inactive),> 100 µM (inactive)
CCC(C)C(NC(=O)CNC(=O)C(Cc1ccccc1)NC(=O)C1CCCN1C(=O)c1ccc(-c2ccc(Cl)cc2Cl)o1)C(=O)OC (stereo unspecified) (X33-PFGI-OMe; configuration not given here),69.2 µM (inactive),15 µM (inactive),36.7 µM (inactive),29.8 µM (inactive),16.8 µM (inactive),39.5 µM (inactive),92.5 µM (inactive),> 100 µM (inactive),20.8 µM (inactive),27.4 µM (inactive),34.1 µM (inactive),46.8 µM (inactive),89.5 µM (inactive),31 µM (inactive),31.6 µM (inactive),7.4 µM (inactive),10.6 µM (inactive),74.8 µM (inactive),25.3 µM (inactive)
CC(C)[C@H](O)C(=O)N[C@H]1Cc2ccc3c(c2)[C@]24C5=C(N=C(O5)[C@H](C(C)C)NC1=O)c1nc(Cl)c(o1)-c1c(Cl)[nH]c5cccc(c15)-c1cccc2c1N[C@H]4O3,0.00513 µM (active),0.0111 µM (active),0.257 µM (active),0.0022 µM (active),0.0229 µM (active),0.00524 µM (active),0.00863 µM (active),0.00346 µM (active),0.00274 µM (active),–,0.00625 µM (active),0.0311 µM (active),0.001 µM (active),0.0968 µM (active),–,1.27 µM (inactive),0.001 µM (active),0.0242 µM (active),3.9 µM (inactive)
